In ChEMBL document CHEMBL1150070, “A novel cytotoxic macrolide, superstolide B, related to superstolide A, from the New Caledonian marine sponge Neosiphonia superstes” (J Nat Prod, 1994) one finds IC50 data, which are given here for 1 molecule.

Molecules are shown by their SMILES. In brackets after ≈: the same amount, converted by molar mass.

A word on the IC50: it is the midpoint of a concentration-inhibition curve.

What all share (type): functional, cell-based
In one assay the test system is KB. Description: Cytotoxicity against human KB cells.
The nature of assay [1]: Cytotoxicity against human NSCLC-N6-L16 cells.
Another assay relates to P388. Put plainly: Cytotoxicity against mouse P388 cells.

As to `CO[C@@H]1C[C@H](OC(N)=O)[C@@H]2C=C[C@@H]3/C=C(C)/C=C/[C@@H](C)[C@H](/C(C)=C/[C@@H](C)NC(C)=O)OC(=O)/C=C/C=C(C)\C=C\[C@]3(C)[C@@H]2C1` [SUPERSTOLIDE B], the figures for the IC50 (in the assay with KB; in assay [1]; with P388) were 5 ng/mL (≈ 8.24 nM), 39 ng/mL (≈ 64.3 nM) and 3 ng/mL (≈ 4.94 nM), respectively.
